Experimental data published in patent US12384797B2, “Thioeno[3,2-b] pyridin-7-amine compounds for treating familial dysautonomia” (PTC THERAPEUTICS, INC., priority 2019, dated 2025).

System: Elongator complex protein 1 (ELP1, also referred to as IKBKAP)
Assay: IKBKAP-HTRF assay (IKBKAP protein in lysates of FD patient-derived fibroblasts)
Format: cell-based, human
Conditions: 48 hours incubation, 7-point concentration curve
Method in brief: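 Sandwich HTRF with two labelled anti-IKAP antibodies (overnight, 4 °C) measured IKBKAP in lysates of FD patient fibroblasts. Cells were exposed to compound for 48 h at 37 °C (7-point curve, 3.16-fold steps, triplicates). EC2x is the dose doubling IKBKAP versus DMSO control; MFI is sample ΔF divided by vehicle ΔF.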

SMILES: C[C@H](N)C(F)(F)c1sc2c(NCc3cccs3)cc(Cl)nc2c1Cl [Compound 132, 2-[(2S)-2-amino-1,1-difluoropropyl]-3,5-dichloro-N-[(thiophen-2-yl)methyl]thieno[3,2-b]pyridin-7-amine]
- EC2x for IKBKAP protein expression (concentration producing two times the amount of IKBKAP protein vs DMSO vehicle control): **** (between >0.005 μM and ≤0.02 μM is indicated by four stars (****))
- MFI (maximum fold increase in IKBKAP protein abundance relative to the vehicle control): ***** (>4.9 is indicated by five stars (*****))

SMILES: N[C@H](CF)Cc1sc2c(NCc3nccs3)cc(Cl)nc2c1Cl [Compound 67, 2-[(2S)-2-amino-3-fluoropropyl]-3,5-dichloro-N-[(1,3-thiazol-2-yl)methyl]thieno[3,2-b]pyridin-7-amine]
- EC2x for IKBKAP protein expression (concentration producing two times the amount of IKBKAP protein vs DMSO vehicle control): * (An EC2x>1 μM is indicated by one star (*))
- MFI (maximum fold increase in IKBKAP protein abundance relative to the vehicle control): * (An MFI≤1.9 is indicated by one star (*))

SMILES: Cc1c(C(C)(O)CO)sc2c(NCc3ccco3)cc(Cl)nc12 (centres unmarked) [Compound 147, 2-(5-chloro-7-{[(furan-2-yl)methyl]amino}-3-methylthieno[3,2-b]pyridin-2-yl)propane-1,2-diol]
- EC2x for IKBKAP protein expression (concentration producing two times the amount of IKBKAP protein vs DMSO vehicle control): *** (between >0.02 μM and ≤0.5 μM is indicated by three stars (***))
- MFI (maximum fold increase in IKBKAP protein abundance relative to the vehicle control): ** (between >1.9 and ≤2.9 is indicated by two stars (**))

SMILES: Cc1c(C[C@@H](N)C(=O)Nc2cccc(Cl)c2)sc2c(NCc3ccco3)cc(Cl)nc12 [Compound 143, 3-(5-chloro-7-{[(furan-2-yl)methyl]amino}-3-methylthieno[3,2-b]pyridin-2-yl)-N-(3-chlorophenyl)-D-alaninamide]
- EC2x for IKBKAP protein expression (concentration producing two times the amount of IKBKAP protein vs DMSO vehicle control): *** (between >0.02 μM and ≤0.5 μM is indicated by three stars (***))
- MFI (maximum fold increase in IKBKAP protein abundance relative to the vehicle control): ***** (>4.9 is indicated by five stars (*****))

SMILES: CC[C@H](N)Cc1sc2c(NCc3cccs3)cc(Cl)nc2c1Br [Compound 73, 2-[(2S)-2-aminobutyl]-3-bromo-5-chloro-N-[(thiophen-2-yl)methyl]thieno[3,2-b]pyridin-7-amine]
- EC2x for IKBKAP protein expression (concentration producing two times the amount of IKBKAP protein vs DMSO vehicle control): ***** (≤0.005 μM is indicated by five stars (*****))
- MFI (maximum fold increase in IKBKAP protein abundance relative to the vehicle control): ***** (>4.9 is indicated by five stars (*****))

SMILES: N#CC[C@H](N)Cc1sc2c(NCc3ccco3)cc(Cl)nc2c1Br [Compound 103, (3S)-3-amino-4-(3-bromo-5-chloro-7-{[(furan-2-yl)methyl]amino}thieno[3,2-b]pyridin-2-yl)butanenitrile]
- EC2x for IKBKAP protein expression (concentration producing two times the amount of IKBKAP protein vs DMSO vehicle control): **** (between >0.005 μM and ≤0.02 μM is indicated by four stars (****))
- MFI (maximum fold increase in IKBKAP protein abundance relative to the vehicle control): **** (between >3.9 and ≤4.9 is indicated by four stars (****))

SMILES: Cc1c(C[C@H](C)N)sc2c(NCc3ccco3)cc(C#N)nc12 [Compound 20, 2-[(2S)-2-aminopropyl]-7-{[(furan-2-yl)methyl]amino}-3-methylthieno[3,2-b]pyridine-5-carbonitrile]
- EC2x for IKBKAP protein expression (concentration producing two times the amount of IKBKAP protein vs DMSO vehicle control): ***** (≤0.005 μM is indicated by five stars (*****))
- MFI (maximum fold increase in IKBKAP protein abundance relative to the vehicle control): ***** (>4.9 is indicated by five stars (*****))

SMILES: Clc1cc(NCc2ccco2)c2sccc2n1 [Compound 1, 5-chloro-N-[(furan-2-yl)methyl]thieno[3,2-b]pyridin-7-amine]
- EC2x for IKBKAP protein expression (concentration producing two times the amount of IKBKAP protein vs DMSO vehicle control): * (An EC2x>1 μM is indicated by one star (*))
- MFI (maximum fold increase in IKBKAP protein abundance relative to the vehicle control): *** (between >2.9 and ≤3.9 is indicated by three stars (***))

SMILES: C[C@H](N)Cc1sc2c(NCc3nccs3)cc(Cl)nc2c1Br [Compound 43, 2-[(2S)-2-aminopropyl]-3-bromo-5-chloro-N-[(1,3-thiazol-2-yl)methyl]thieno[3,2-b]pyridin-7-amine]
- EC2x for IKBKAP protein expression (concentration producing two times the amount of IKBKAP protein vs DMSO vehicle control): ***** (≤0.005 μM is indicated by five stars (*****))
- MFI (maximum fold increase in IKBKAP protein abundance relative to the vehicle control): ***** (>4.9 is indicated by five stars (*****))

SMILES: Cc1csc2c(NCc3ccco3)cc(Cl)nc12 [Compound 2, 5-chloro-N-[(furan-2-yl)methyl]-3-methylthieno[3,2-b]pyridin-7-amine]
- EC2x for IKBKAP protein expression (concentration producing two times the amount of IKBKAP protein vs DMSO vehicle control): *** (between >0.02 μM and ≤0.5 μM is indicated by three stars (***))
- MFI (maximum fold increase in IKBKAP protein abundance relative to the vehicle control): ***** (>4.9 is indicated by five stars (*****))

SMILES: Cc1c(C[C@@H](N)C(=O)Nc2ccc(C#N)cc2)sc2c(NCc3ccco3)cc(Cl)nc12 [Compound 133, 3-(5-chloro-7-{[(furan-2-yl)methyl]amino}-3-methylthieno[3,2-b]pyridin-2-yl)-N-(4-cyanophenyl)-D-alaninamide]
- EC2x for IKBKAP protein expression (concentration producing two times the amount of IKBKAP protein vs DMSO vehicle control): ***** (≤0.005 μM is indicated by five stars (*****))
- MFI (maximum fold increase in IKBKAP protein abundance relative to the vehicle control): ***** (>4.9 is indicated by five stars (*****))

SMILES: C[C@H](N)Cc1sc2c(NCc3cccs3)cc(Cl)nc2c1Br [Compound 53, 2-[(2S)-2-aminopropyl]-3-bromo-5-chloro-N-[(thiophen-2-yl)methyl]thieno[3,2-b]pyridin-7-amine]
- EC2x for IKBKAP protein expression (concentration producing two times the amount of IKBKAP protein vs DMSO vehicle control): ***** (≤0.005 μM is indicated by five stars (*****))
- MFI (maximum fold increase in IKBKAP protein abundance relative to the vehicle control): ***** (>4.9 is indicated by five stars (*****))

SMILES: CNCc1sc2c(NCc3ccco3)cc(Cl)nc2c1C [Compound 27, 5-chloro-N-[(furan-2-yl)methyl]-3-methyl-2-[(methylamino)methyl]thieno[3,2-b]pyridin-7-amine]
- EC2x for IKBKAP protein expression (concentration producing two times the amount of IKBKAP protein vs DMSO vehicle control): *** (between >0.02 μM and ≤0.5 μM is indicated by three stars (***))
- MFI (maximum fold increase in IKBKAP protein abundance relative to the vehicle control): **** (between >3.9 and ≤4.9 is indicated by four stars (****))

SMILES: CS(=O)(=O)C[C@H](N)Cc1sc2c(NCc3ccco3)cc(Cl)nc2c1Br [Compound 117, 2-[(2R)-2-amino-3-(methanesulfonyl)propyl]-3-bromo-5-chloro-N-[(furan-2-yl)methyl]thieno[3,2-b]pyridin-7-amine]
- EC2x for IKBKAP protein expression (concentration producing two times the amount of IKBKAP protein vs DMSO vehicle control): **** (between >0.005 μM and ≤0.02 μM is indicated by four stars (****))
- MFI (maximum fold increase in IKBKAP protein abundance relative to the vehicle control): ***** (>4.9 is indicated by five stars (*****))

SMILES: C[C@H](N)C(O)c1sc2c(NCc3cccs3)cc(Cl)nc2c1Cl (stereo partly drawn) [Compound 127, (2S)-2-amino-1-(3,5-dichloro-7-{[(thiophen-2-yl)methyl]amino}thieno[3,2-b]pyridin-2-yl)propan-1-ol]
- EC2x for IKBKAP protein expression (concentration producing two times the amount of IKBKAP protein vs DMSO vehicle control): **** (between >0.005 μM and ≤0.02 μM is indicated by four stars (****))
- MFI (maximum fold increase in IKBKAP protein abundance relative to the vehicle control): ***** (>4.9 is indicated by five stars (*****))

SMILES: C=C[C@H](N)Cc1sc2c(NCc3nccs3)cc(Cl)nc2c1Br [Compound 72, 2-[(2R)-2-aminobut-3-en-1-yl]-3-bromo-5-chloro-N-[(1,3-thiazol-2-yl)methyl]thieno[3,2-b]pyridin-7-amine]
- EC2x for IKBKAP protein expression (concentration producing two times the amount of IKBKAP protein vs DMSO vehicle control): ***** (≤0.005 μM is indicated by five stars (*****))
- MFI (maximum fold increase in IKBKAP protein abundance relative to the vehicle control): ***** (>4.9 is indicated by five stars (*****))
